The numbers were not newly measured in PubChem BioAssay AID1259410 (Chemical Carcinogenesis Research Information System (CCRIS), 2018), which cites them from elsewhere.

The subject of this data set is rodent tumor promotion studies, tumor incidence. Description: CCRIS tumor promotion studies.

Consider `O=[As]O`, for which the outcome reads like this: (Carcinogen: UV RADIATION 3X A WK FOR 6 MO STARTING 3 WKS AFTER ARSENITE, Doses [Promoter]: 5.0 MG/L STARTING AT 3 WKS OF AGE (STUDY DURATION: 28 WKS), Route [Carcinogen]: DERMAL, Route [Promoter]: DRINKING WATER, Species: MOUSE, Strain/Sex: CRL:SK1-HRBD (HAIRLESS)/FEMALE) “skin: 3.6 tumors/mouse uv alone; 7.0 tumors/mouse uv and arsenite”; (Carcinogen: UV-B IRRADIATION (WESTINGHOUSE SOLAR FS-20 LAMP 85% IN 290-320 NM RANGE), Doses [Carcinogen]: 1.7 KJ/SQ M 3/WK FOR 182 D BEGINNING 3 WK POST PROMOTER FIRST DOSE, Doses [Promoter]: 0, 10 MG/L IN DRINKING WATER BEGINNING AT 21 D AFTER BIRTH (STUDY DURATION: 203 D), Route [Carcinogen]: DERMAL, Route [Promoter]: ORAL, Species: MOUSE, Strain/Sex: SKH/FEMALE) “skin: squamous cell carcinoma”.

In the case of `CC(=O)Nc1ccc2c(c1)C(=O)c1ccccc1-2`, the outcome (Carcinogen: DIETHYLNITROSAMINE, 55-18-5, Doses [Carcinogen]: 200 MG/KG BW IN 0.9% SALINE ONCE, Doses [Promoter]: 0, 0.1 MMOL/KG BW IN POLYETHYLENE GLYCOL FOR 5 D BEGINNING 1 WK POST CARCINOGEN DOSE, 70% HEPATECTOMY PERFORMED 3 D AFTE, Route [Carcinogen]: INTRAPERITONEAL, Route [Promoter]: GAVAGE, Species: RAT, Strain/Sex: SPRAGUE-DAWLEY/MALE) is recorded as “liver: hepatocellular carcinoma”.

As to `C[C@H](CCC(=O)O)[C@H]1CC[C@H]2[C@@H]3[C@H](O)C[C@@H]4C[C@H](O)CC[C@]4(C)[C@H]3C[C@H](O)[C@]12C`, the outcome is “colon: tumor” (Carcinogen: AZOXYMETHANE, 25843-45-2, Doses [Carcinogen]: 15 MG/KG BW 1/WK FOR 2 WK, Doses [Promoter]: 0, 0.4% IN THE DIET FOR 28 WK BEGINNING 2 WK PRIOR TO CARCINOGEN TREATMENT (STUDY DURATION: 30 WK), Route [Carcinogen]: SUBCUTANEOUS, Route [Promoter]: ORAL, Species: RAT, Strain/Sex: F344/MALE) and “colon” (Doses [Carcinogen]: IR, Route [Carcinogen]: RECTAL, Route [Promoter]: RECTAL, Species: RAT, Strain/Sex: FEMALE).

`ClC1(Cl)C2(Cl)C3(Cl)C4(Cl)C(Cl)(Cl)C5(Cl)C3(Cl)C1(Cl)C5(Cl)C24Cl` (stereo not given): the outcome reads like this: (Carcinogen: 7,12-DIMETHYLBENZ[A]ANTHRACENE, 57-97-6, Doses [Carcinogen]: 200 NMOL IN 200 µL ACETONE ONCE, Doses [Promoter]: 0, 25, 50, 100, 200 NMOL IN 200 µL ACETONE 3/WK FOR 20 WK (STUDY DURATION: 20 WK), Doses [Promoter]: 0, 25, 50, 100, 200 NMOL IN 200 µL ACETONE 3/WK FOR 20 WK (STUDY DURATION: 20 WK), Route [Carcinogen]: DERMAL, Route [Promoter]: DERMAL, Species: MOUSE, Strain/Sex: CD-1/FEMALE) “skin: tumor”; (Carcinogen: 7,12-DIMETHYLBENZ[A]ANTHRACENE, 57-97-6, Doses [Carcinogen]: 200 NMOL IN 200 µL ACETONE ONCE, Doses [Promoter]: 0, 25, 50, 100 NMOL IN 200 µL ACETONE 3/WK FOR 34 WK (STUDY DURATION: 34 WK), Doses [Promoter]: 0, 25, 50, 100 NMOL IN 200 µL ACETONE 3/WK FOR 34 WK (STUDY DURATION: 34 WK), Route [Carcinogen]: DERMAL, Route [Promoter]: DERMAL, Species: MOUSE, Strain/Sex: CD-1/FEMALE) “skin: tumor”; (Carcinogen: 7,12-DIMETHYLBENZ[A]ANTHRACENE, 57-97-6, Doses [Carcinogen]: 200 NMOL IN 200 µL ACETONE ONCE, Doses [Promoter]: 0, 200 NMOL IN 200 µL ACETONE 2/WK FOR 20 WK BEGINNING 1 WK POST CARCINOGEN DOSE (STUDY DURATION: 21 WK), Route [Carcinogen]: DERMAL, Route [Promoter]: DERMAL, Species: MOUSE, Strain/Sex: CD-1/FEMALE) “skin: tumors”; (Carcinogen: 7,12-DIMETHYLBENZ[A]ANTHRACENE, 57-97-6, Doses [Carcinogen]: 200 NMOL IN 200 µL ACETONE ONCE, Doses [Promoter]: 0, 200 NMOL IN 200 µL ACETONE 3/WK FOR 20 WK BEGINNING 1 WK POST CARCINOGEN DOSE (STUDY DURATION: 21 WK), Route [Carcinogen]: DERMAL, Route [Promoter]: DERMAL, Species: MOUSE, Strain/Sex: CD-1/FEMALE) “skin: tumors”; (Carcinogen: 7,12-DIMETHYLBENZ[A]ANTHRACENE, 57-97-6, Doses [Carcinogen]: 200 NMOL IN 200 µL ACETONE ONCE, Doses [Promoter]: 0, 200 NMOL IN 200 µL ACETONE 3/WK FOR 20 WK BEGINNING 1 WK POST CARCINOGEN DOSE (STUDY DURATION: 21 WK), Route [Carcinogen]: DERMAL, Route [Promoter]: DERMAL, Species: MOUSE, Strain/Sex: CD-1/MALE) “skin: tumors”; (Carcinogen: 7,12-DIMETHYLBENZ[A]ANTHRACENE, 57-97-6, Doses [Carcinogen]: 200 NMOL IN 200 µL ACETONE ONCE, Doses [Promoter]: 0, 200 NMOL IN 200 µL ACETONE 3/WK FOR 20 WK BEGINNING 4 WK POST CARCINOGEN DOSE ADMINISTERED TO OVARIECTOMIZED MICE (ST, Route [Carcinogen]: DERMAL, Route [Promoter]: DERMAL, Species: MOUSE, Strain/Sex: CD-1/FEMALE) “skin: tumors”.

Consider `CC(=O)O[C@]1(C(C)=O)CC[C@H]2[C@@H]3C[C@H](C)C4=CC(=O)CC[C@]4(C)[C@H]3CC[C@@]21C`, for which the outcome (Carcinogen: 7,12-DIMETHYLBENZ[A]ANTHRACENE, 57-97-6, Doses [Carcinogen]: 1 MG IN 0.1 ML COTTONSEED OIL 1/WK AT WKS 9,10,12 AND 13 OF AGE, Doses [Promoter]: 0, 20 MG EACH IN 2 PELLETS IMPLANTED IN THE INTERSCAPULAR AREA AT 6 WK OF AGE (STUDY DURATION: 15 MO), Route [Carcinogen]: GAVAGE, Route [Promoter]: SUBCUTANEOUS IMPLANT, Species: MOUSE, Strain/Sex: CD2F1/FEMALE) is recorded as “mammary gland: tumor”; the outcome (Carcinogen: METHYLNITROSOUREA, 684-93-5, Doses [Carcinogen]: 50 MG/KG BW ONCE, Doses [Promoter]: 0, 40 MG DEPOT EVERY 3 MO BEGINNING 1 WK POST CARCINOGEN DOSE (STUDY DURATION: 9 MO), Route [Carcinogen]: INTRAPERITONEAL, Route [Promoter]: SUBCUTANEOUS, Species: MOUSE, Strain/Sex: BALB/FEMALE) is “mammary gland: carcinoma”; the outcome (Carcinogen: METHYLNITROSOUREA, 684-93-5, Doses [Carcinogen]: 50 MG/KG BW ONCE, Doses [Promoter]: 0, 40 MG DEPOT EVERY 3 MO BEGINNING 1 WK PRIOR TO CARCINOGEN DOSE (STUDY DURATION: 9 MO), Route [Carcinogen]: INTRAPERITONEAL, Route [Promoter]: SUBCUTANEOUS, Species: MOUSE, Strain/Sex: BALB/FEMALE) was “mammary gland: carcinoma”.

As for `CC(C(=O)O)c1ccc(-c2ccccc2)c(F)c1` (stereo not given), the outcome (Carcinogen: N-METHYL-N'-NITRO-N-NITROSOGUANIDINE, 70-25-7, Doses [Carcinogen]: 10 MG ADMINISTERED AS 3 D TREATMENT CYCLES FOLLOWED BY REST PERIODS FOR A TOTAL OF 6 CYCLES (TOTAL DOSE 180 MG DURING 40, Doses [Promoter]: 0.5 MG ADMINISTERED AS 3 D TREATMENT CYCLES FOLLOWED BY REST PERIODS ADMINISTERED CONCURRENTLY WITH CARCINOGEN DURING 40, Route [Carcinogen]: INTRAGASTRIC, Route [Promoter]: GAVAGE, Species: RAT, Strain/Sex: WISTAR/FEMALE) is recorded as “stomach: adenocarcinoma; small intestine: adenocarcinoma”.

Consider `CCCCCCCCCCCCCC(=O)OCC1=C[C@H]2C3C(C)(C)C3(OC(C)=O)[C@H](OC(=O)CCCCCCCCCCCCC)[C@@H](C)[C@]2(O)[C@@H]2C=C(C)C(=O)[C@]2(O)C1` (stereo not given in full), for which the outcome (Carcinogen: 7,12-DIMETHYLBENZ[A]ANTHRACENE, 57-97-6, Doses [Carcinogen]: 100 NMOL ONCE, Doses [Promoter]: 0, 50, 100, 200 NMOL 2/WK FOR 24 WK BEGINNING 1 WK POST CARCINOGEN DOSE (STUDY DURATION: 25 WK), Doses [Promoter]: 0, 50, 100, 200 NMOL 2/WK FOR 24 WK BEGINNING 1 WK POST CARCINOGEN DOSE (STUDY DURATION: 25 WK), Route [Carcinogen]: DERMAL, Route [Promoter]: DERMAL, Species: MOUSE, Strain/Sex: NMRI/FEMALE) was “skin: tumor”.

Regarding `CN(C)CCCN1c2ccccc2Sc2ccc(Cl)cc21`, the outcome (Carcinogen: UV IRRADIATION, Doses [Carcinogen]: 0.53 J/CM2 INCREASED BY 20% EVERY 2 WK TO 1.60 J/CM2 AND MAINTAINED AT 1.60 J/CM2 UNTIL DEATH, ADMINISTERED 5 D/WK FOR 1, Doses [Promoter]: 0, 15 UG/G BEGINNING 2 WK POST FIRST CARCINOGEN DOSE ADMINISTERED 2 HR PRIOR TO EACH CARCINOGEN DOSE (STUDY DURATION: 30, Route [Carcinogen]: DERMAL, Route [Promoter]: INTRAPERITONEAL, Species: MOUSE, Strain/Sex: SKH/HRL/FEMALE) is listed as “skin: tumor”.

As to `C[C@H](CCC(=O)O)[C@H]1CC[C@H]2[C@@H]3CC[C@@H]4C[C@H](O)CC[C@]4(C)[C@H]3CC[C@]12C`, the outcome is “gallbladder: tumor” (Carcinogen: 3-METHYLCHOLANTHRENE, 56-49-5, Doses [Carcinogen]: 3 MG IN BEESWAX PELLET, Doses [Promoter]: 0, 3 MG IN BEESWAX PELLET (STUDY DURATION: 5 MO), Route [Carcinogen]: IMPLANT, Route [Promoter]: IMPLANT, Species: HAMSTER) and “colon” (Doses [Carcinogen]: IR, Route [Carcinogen]: RECTAL, Route [Promoter]: RECTAL, Species: RAT, Strain/Sex: MALE,FEMALE).

Turning to `COc1c(N2C[C@@H]3CCCN[C@@H]3C2)c(F)cc2c(=O)c(C(=O)O)cn(C3CC3)c12`, the outcome (Carcinogen: N-METHYL-N-NITROSOUREA, 684-93-5, Doses [Carcinogen]: 4.5 MG/KG BW 1/WK FOR FIRST 10 WK, Doses [Promoter]: 0, 500 MG/KG BW/D FOR 24 WK BEGINNING 14 WK POST CARCINOGEN FIRST DOSE (STUDY DURATION: 38 WK), Route [Carcinogen]: GAVAGE, Route [Promoter]: GAVAGE, Species: RAT, Strain/Sex: WISTAR/MALE, FEMALE) is “forestomach: squamous cell papilloma, glandular stomach adenocarcinoma”.
